Several values for one entry are separate records, joined by “and”; a condition that tells them apart may be missing. Equal entries are not always repeated.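 96-well plates; 48 h exposure; 5 concentrations. Endpoints by linear interpolation between flanking doses. Not reached: highest tested concentration assigned. Abbreviation: GI50, concentration required for 50% inhibition of growth. The concentration for full growth arrest is given as TGI.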
Columns and labels:
Assay in all cases: growth of human tumour cells (NCI), 48 h
A549 NSCLC = system: A549 NSCLC
HCT-116 colon = system: HCT-116 colon
HL-60(TB) leukemia = system: HL-60(TB) leukemia
HOP-92 NSCLC = system: HOP-92 NSCLC
K-562 leukemia = system: K-562 leukemia
M14 melanoma = system: M14 melanoma
NCI-H226 lung = system: NCI-H226 lung
OVCAR-8 ovarian = system: OVCAR-8 ovarian
U251 CNS = system: U251 CNS
UO-31 renal = system: UO-31 renal

Row | Structure (SMILES) | GI50 (A549 NSCLC) | TGI (A549 NSCLC) | GI50 (HCT-116 colon) | TGI (HCT-116 colon) [µM] | GI50 (HL-60(TB) leukemia) [µM] | TGI (HL-60(TB) leukemia) [µM] | GI50 (HOP-92 NSCLC) | TGI (HOP-92 NSCLC) [µM] | GI50 (K-562 leukemia) [µM] | TGI (K-562 leukemia) [µM] | GI50 (M14 melanoma) | TGI (M14 melanoma) | GI50 (NCI-H226 lung) | TGI (NCI-H226 lung) | GI50 (OVCAR-8 ovarian) | TGI (OVCAR-8 ovarian) | GI50 (U251 CNS) | TGI (U251 CNS) [µM] | GI50 (UO-31 renal) | TGI (UO-31 renal)
1 | C#Cc1ccc(-n2c(/C=C/c3ccc(O)cc3)nc3ncccc3c2=O)cc1 | 4.74 µM | > 100 µM | 5.07 µM | > 100 | 3.2 | 30 | 1.8 µM | 17.1 | 4.33 | > 100 | 2.7 µM | 8.08 µM | 2.58 µM | 13.1 µM | 4.39 µM | 47 µM | 4.02 µM | > 100 | 3.79 µM | 33.7 µM
2 | COc1ccc(-c2cc(/C=C/C(=O)c3ccc(N)cc3)[nH]n2)cc1OC | 2.75 µM | 10.1 µM | 1.71 µM | 3.51 | 3.45 | > 100 | 14.9 µM | 30.9 | 2.03 | 36.4 | 2.28 µM | 5.11 µM | 2.32 µM | 7.38 µM | 2.95 µM | 10.5 µM | 1.74 µM | 3.66 | 3.03 µM | 13.1 µM
3 | COc1cc2nnc3c4cccnc4[nH]c3c2cc1OC | 16 µM and 7.9 µM | 50 µM and 31.7 µM | 0.292 µM and 0.127 µM |  | 0.111 | 50 | 0.771 µM and 0.212 µM |  | 0.577 | 50 | 8.18 µM and 1.79 µM | 27.4 µM and 3.49 µM | 5.44 µM and 1.94 µM | 21.4 µM and 5.11 µM | 3.91 µM and 1.25 µM | 50 µM and > 100 µM | 1.66 µM and 0.918 µM |  | 1.52 µM and 0.486 µM | 10.9 µM and 2.66 µM
4 | CCCCS(=O)c1sc2nc(-c3cccs3)cc(-c3ccccc3)c2c1N (configuration not stated) | 9.69 µM | > 100 µM | 12.3 µM | > 100 | 14.5 | > 85.5 | 5.78 µM | 66.1 | 5.96 | > 100 | 17.9 µM | > 100 µM | 17.8 µM | > 100 µM | 19.9 µM | > 100 µM | 18 µM | > 100 | 4.16 µM | 49.2 µM
5 | C=CCN(CC=C)C(=O)c1cc(C)nc2c1c(=O)n(-c1ccccc1)c(=O)n2CCCN1CCN(c2ccccc2OC)CC1 | > 50 µM | > 50 µM | > 50 µM | > 50 | > 50 | > 50 | 4.57 µM | > 50 | > 50 | > 50 | > 50 µM | > 50 µM | > 50 µM | > 50 µM | > 50 µM | > 50 µM | > 50 µM | > 50 | > 50 µM | > 50 µM
6 | O=C(CCCC(=O)Nc1ccc(Cl)cc1Cl)CC(=O)c1ccc2ccccc2c1 |  | > 100 µM |  | > 100 |  | > 100 |  | > 100 |  | > 100 |  | > 100 µM |  | > 100 µM |  | > 100 µM |  | > 100 |  | > 100 µM
7 | N#CC1CC(c2ccccc2)Nc2cc(Cl)ccc2N1 (configuration not stated) |  | > 100 µM |  | > 100 |  | > 100 |  | > 100 |  | > 100 |  | > 100 µM |  | > 100 µM |  | > 100 µM |  | > 100 |  | > 100 µM
